Reference: patent US20050208496A1, “Methods of testing for bronchial asthma or chronic obstructive pulmonary disease” (Genox Research, Inc., priority 2002, published 2005)

Test system: mouse counterpart genes
Assay: Mouse GeneChip (MG-U74A to MG-U74C) analysis of lung and trachea of the OVA antigen-exposed bronchial hypersensitivity model, S-Sal group versus S-OVA group
Type: in vivo
[1] = S-Sal group versus S-OVA group, MG-U74 chip A, 1st
[2] = S-Sal group versus S-OVA group, MG-U74 chip A, 2nd
[3] = S-Sal group versus S-OVA group, MG-U74 chip A, 3rd
[4] = S-Sal group versus S-OVA group, MG-U74 chip B, 1st
[5] = S-Sal group versus S-OVA group, MG-U74 chip B, 2nd
[6] = S-Sal group versus S-OVA group, MG-U74 chip B, 3rd
[7] = S-Sal group vs S-OVA group, 1st, chip A, P/A call A
[8] = S-Sal group vs S-OVA group, 1st, chip A, P/A call P
[9] = S-Sal group vs S-OVA group, 1st, chip B, P/A call A
[10] = S-Sal group vs S-OVA group, 1st, chip B, P/A call P
[11] = S-Sal group vs S-OVA group, 1st, chip C, P/A call P
[12] = S-Sal group vs S-OVA group, 2nd, chip A, P/A call A
[13] = S-Sal group vs S-OVA group, 2nd, chip A, P/A call P
[14] = S-Sal group vs S-OVA group, 2nd, chip B, P/A call A
[15] = S-Sal group vs S-OVA group, 2nd, chip B, P/A call P
[16] = S-Sal group vs S-OVA group, 2nd, chip C, P/A call P
[17] = S-Sal group vs S-OVA group, 3rd, chip A, P/A call A

With “ovalbumin [OVA antigen, ovalbumin antigen used for sensitization and inhalation to induce bronchial hypersensitivity in mice]” the “Fold Change 1st, contactin 1 (mouse Probe ID 92936_at)” value [1] was 1.3, the “Fold Change 1st, lectin, galactose binding, soluble 1 (mouse Probe ID 99669_at)” value [1] was 1.6 and the “Fold Change 1st, peptidyl arginine deiminase, type I (mouse Probe ID 95343_at)” value [1] was 1.3. For the same substance, the “Fold Change 1st, peptidyl arginine deiminase, type III (mouse Probe ID 103803_at)” value [1] was 2.2, the “Fold Change 2nd, contactin 1 (mouse Probe ID 92936_at)” value [2] was 1.9 and the “Fold Change 2nd, lectin, galactose binding, soluble 1 (mouse Probe ID 99669_at)” value [2] was 2. The “Fold Change 2nd, peptidyl arginine deiminase, type I (mouse Probe ID 95343_at)” value [2] was 0.83, the “Fold Change 2nd, peptidyl arginine deiminase, type III (mouse Probe ID 103803_at)” value [2] was 1.4 and the “Fold Change 3rd, contactin 1 (mouse Probe ID 92936_at)” value [3] was 0.44. For the same substance, the “Fold Change 3rd, lectin, galactose binding, soluble 1 (mouse Probe ID 99669_at)” value [3] was 1.3, the “Fold Change 3rd, peptidyl arginine deiminase, type I (mouse Probe ID 95343_at)” value [3] was 0.67 and the “Fold Change 3rd, peptidyl arginine deiminase, type III (mouse Probe ID 103803_at)” value [3] was 1.5. The “Fold Change 1st, aquaporin 5 (mouse Probe ID 113916_at)” value [4] was 0.77, the “Fold Change 1st, contactin 1 (mouse Probe ID 105826_at)” value [4] was 0.83 and the “Fold Change 1st, contactin 1 (mouse Probe ID 164059_f_at)” value [4] was 1.7. For the same substance, the “Fold Change 2nd, aquaporin 5 (mouse Probe ID 113916_at)” value [5] was 0.83, the “Fold Change 2nd, contactin 1 (mouse Probe ID 105826_at)” value [5] was 1 and the “Fold Change 2nd, contactin 1 (mouse Probe ID 164059_f_at)” value [5] was 0.91. The “Fold Change 3rd, aquaporin 5 (mouse Probe ID 113916_at)” value [6] was 0.59, the “Fold Change 3rd, contactin 1 (mouse Probe ID 105826_at)” value [6] was 1.1 and the “Fold Change 3rd, contactin 1 (mouse Probe ID 164059_f_at)” value [6] was 0.77. The “Fold Change 1st, contactin 1 (mouse Probe ID 170177_r_at)” value (S-Sal group versus S-OVA group, MG-U74 chip C, 1st) was 0.67, the “Fold Change 2nd, contactin 1 (mouse Probe ID 170177_r_at)” value (S-Sal group versus S-OVA group, MG-U74 chip C, 2nd) was 1.1 and the “Fold Change 3rd, contactin 1 (mouse Probe ID 170177_r_at)” value (S-Sal group versus S-OVA group, MG-U74 chip C, 3rd) was 1.5. The “Fold Change, AXL receptor tyrosine kinase (mouse probe 99136_at)” value (from here on “Fold Change … (mouse probe 99136_at)”) [7] was 0.357, the “Fold Change, claudin 4 (mouse probe 101410_at)” value [7] was 1.8 and the “Fold Change, histocompatibility-2 complex class I-like sequence (mouse probe 101433_at)” value (“Fold Change … (mouse probe 101433_at)” for short) [7] was 0.526. The “Fold Change, interferon gamma inducible protein 30 (mouse probe 97444_at)” value [7] was 1.3, the “Fold Change, interleukin 1 receptor-like 1 (mouse probe 98500_at)” value [7] was 1.3 and the “Fold Change, low density lipoprotein receptor-related protein associated protein 1 (mouse probe 161988_f_at)” value [7] was 1.3. For the same substance, the “Fold Change, matrix metalloproteinase 7 (mouse probe 92917_at)” value [7] was 2.3, the “Fold Change, met proto-oncogene (mouse probe 100309_at)” value [7] was 0.667 and the “Fold Change, phosphotidylinositol transfer protein, beta (mouse probe 102697_at)” value [7] was 0.303. For the same substance, the “Fold Change, A kinase anchor protein 2 (mouse probe 101435_at)” value [8] was 0.833, the “Fold Change, DNA segment. Chr 16. ERATO Doi 269, expressed (mouse probe 97822_at)” value [8] was 1 and the “Fold Change, DNA segment. Chr 16. ERATO Doi 269, expressed (mouse probe 97823_g_at)” value [8] was 1.1. For the same substance, the “Fold Change, arachidonate 15-lipoxygenase (mouse probe 98758_at)” value [8] was 1.1, the “Fold Change, cholesterol 25-hydroxylase (mouse probe 104509_at)” value [8] was 1.1 and the “Fold Change, claudin 5 (mouse probe 104516_at)” value [8] was 1.1. The “Fold Change, decay accelerating factor 1 (mouse probe 103617_at)” value [8] was 1.2, the “Fold Change, interferon-stimulated protein (20 kDa) (mouse probe 103432_at)” value [8] was 1 and the “Fold Change, low density lipoprotein receptor-related protein associated protein 1 (mouse probe 100086_at)” value [8] was 1.1. For the same substance, the “Fold Change, membrane-associated protein 17 (mouse probe 96935_at)” value [8] was 1, the “Fold Change, phosphotidylinositol transfer protein, beta (mouse probe 102696_s_at)” value (from here on “Fold Change … (mouse probe 102696_s_at)”) (S-Sal group vs S-OVA group, 1st, chip A, P/A call P, counterpart of human probe 353_at) was 1.3 and the “Fold Change … (mouse probe 102696_s_at)” value (S-Sal group vs S-OVA group, 1st, chip A, P/A call P, counterpart of human probe 35017_f_at) was 1.3. For the same substance, the “Fold Change, histocompatibility 2, Q region locus 7 (mouse probe 98438_f_at)” value (from here on “Fold Change … (mouse probe 98438_f_at)”) (S-Sal group vs S-OVA group, 1st, chip A, P/A call P, counterpart of human probe 37420_i_at) was 1.3, the “Fold Change … (mouse probe 98438_f_at)” value (S-Sal group vs S-OVA group, 1st, chip A, P/A call P, counterpart of human probe 37421_f_at) was 1.3 and the “Fold Change, A kinase (PRKA) anchor protein 10 (mouse probe 163162_at)” value [9] was 0.5. For the same substance, the “Fold Change, ESTs Putative Ortholog of ISG-54K gene (mouse probe 164273_at)” value [9] was 1, the “Fold Change, ESTs, Highly similar to AF116721 8 PRO0907 [H. sapiens] (mouse probe 114151_at)” value [9] was 1 and the “Fold Change, neurotrophic tyrosine kinase, receptor type 1 (mouse probe 110116_at)” value [9] was 2.5. For the same substance, the “Fold Change, secreted end transmembrane 1 (mouse probe 115133_at)” value [9] was 0.435, the “Fold Change, MP and activin membrane-bound inhibitor, homolog (Xanopus laevis) (mouse probe 162531_at)” value [10] was 1 and the “Fold Change, decay accelerating factor 1 (mouse probe 107626_at)” value [10] was 1.3. For the same substance, the “Fold Change, viral hemorrhagic septicemia virus(VHSV) induced gene 1 (mouse probe 109385_at)” value [10] was 0.769, the “Fold Change, cholesterol 25-hydroxylase (mouse probe 133666_at)” value (S-Sal group vs S-OVA group, 1st, chip C, P/A call A) was 0.588 and the “Fold Change, deleted in bladder cancer chromosome region candidate 1 (human) Putative Ortholog (mouse probe 166806_at)” value [11] was 1.4. For the same substance, the “Fold Change, interferon-induced protein with tetratricopeptide repeats 1 (mouse probe 168299_f_at)” value [11] was 1.3, the “Fold Change, interleukin 1 receptor-like 1 (mouse probe 98501_at)” value (S-Sal group vs S-OVA group, 2nd, chip A) was 1.8 and the “Fold Change … (mouse probe 99136_at)” value [12] was 0.476. For the same substance, the “Fold Change, a disintegrin and metalloprotease domain 8 (mouse probe 103024_at)” value [12] was 3.4, the “Fold Change, claudin 4 (mouse probe 101410_at)” value [12] was 3.4 and the “Fold Change … (mouse probe 101433_at)” value [12] was 0.625. The “Fold Change, interferon gamma inducible protein 30 (mouse probe 97444_at)” value [12] was 1.9, the “Fold Change, matrix metalloproteinase 7 (mouse probe 92917_at)” value [12] was 1.6 and the “Fold Change, met proto-oncogene (mouse probe 100309_at)” value [12] was 1. The “Fold Change, phosphotidylinositol transfer protein, beta (mouse probe 102697_at)” value [12] was 0.333, the “Fold Change, matrix metalloproteinase 7 (mouse probe 162318_r_at)” value (S-Sal group vs S-OVA group, 2nd, chip A, P/A call M) was 1.7 and the “Fold Change, A kinase anchor protein 2 (mouse probe 101435_at)” value [13] was 0.833. For the same substance, the “Fold Change, DNA segment. Chr 16. ERATO Doi 269, expressed (mouse probe 97821_at)” value [13] was 1, the “Fold Change, DNA segment. Chr 16. ERATO Doi 269, expressed (mouse probe 97823_g_at)” value [13] was 1.1 and the “Fold Change, arachidonate 15-lipoxygenase (mouse probe 98758_at)” value [13] was 3.5. For the same substance, the “Fold Change, cholesterol 25-hydroxylase (mouse probe 104509_at)” value [13] was 3.1, the “Fold Change, claudin 5 (mouse probe 104516_at)” value [13] was 1.2 and the “Fold Change, decay accelerating factor 1 (mouse probe 103617_at)” value [13] was 1.5. The “Fold Change, interferon-stimulated protein (20 kDa) (mouse probe 103432_at)” value [13] was 1.2, the “Fold Change, interleukin 1 receptor-like 1 (mouse probe 98500_at)” value [13] was 3.4 and the “Fold Change, polycystic kidney disease 2 (mouse probe 100951_at)” value [13] was 0.667. For the same substance, the “Fold Change … (mouse probe 102696_s_at)” value (S-Sal group vs S-OVA group, 2nd, chip A, P/A call P, counterpart of human probe 353_at) was 1, the “Fold Change … (mouse probe 102696_s_at)” value (S-Sal group vs S-OVA group, 2nd, chip A, P/A call P, counterpart of human probe 35017_f_at) was 1 and the “Fold Change … (mouse probe 98438_f_at)” value (S-Sal group vs S-OVA group, 2nd, chip A, P/A call P, counterpart of human probe 37420_i_at) was 1.4. The “Fold Change … (mouse probe 98438_f_at)” value (S-Sal group vs S-OVA group, 2nd, chip A, P/A call P, counterpart of human probe 37421_f_at) was 1.4, the “Fold Change, ESTs Putative Ortholog of ISG-54K gene (mouse probe 164273_at)” value [14] was 1 and the “Fold Change, ESTs, Highly similar to AF116721 8 PRO0907 [H. sapiens] (mouse probe 114151_at)” value [14] was 1.2. The “Fold Change, decay accelerating factor 1 (mouse probe 164905_r_at)” value [14] was 1, the “Fold Change, neurotrophic tyrosine kinase, receptor type 1 (mouse probe 110116_at)” value [14] was 1.2 and the “Fold Change, secreted end transmembrane 1 (mouse probe 115133_at)” value [14] was 0.5. The “Fold Change, decay accelerating factor 1 (mouse probe 107626_at)” value [15] was 1.6, the “Fold Change, interferon gamma inducible protein 30 (mouse probe 164423_at)” value [15] was 4 and the “Fold Change, viral hemorrhagic septicemia virus(VHSV) induced gene 1 (mouse probe 109385_at)” value [15] was 1.7. The “Fold Change, deleted in bladder cancer chromosome region candidate 1 (human) Putative Ortholog (mouse probe 166806_at)” value [16] was 1.5, the “Fold Change, interferon-induced protein with tetratricopeptide repeats 1 (mouse probe 168299_f_at)” value [16] was 1.1 and the “Fold Change, interleukin 1 receptor-like 1 (mouse probe 98501_at)” value (S-Sal group vs S-OVA group, 3rd, chip A) was 1. The “Fold Change … (mouse probe 99136_at)” value [17] was 0.25, the “Fold Change, a disintegrin and metalloprotease domain 28 (mouse probe 101723_r_at)” value [17] was 1.8 and the “Fold Change … (mouse probe 101433_at)” value [17] was 0.833.
